Like-named read-outs stand apart in the source and are kept apart here.
How the values were obtained:
[1] = test system: A2780/CP70 cells; assay: MTT cytotoxicity assay, A2780/CP70 cells; conditions: for IC50: Homo sapiens, read-out: IC50 cytotoxicity
Description: In separate experiments, cells were seeded in 96‐well plates and after 24 h elapsed they were exposed to different concentrations of drugs or vehicle. Cells were then left in the incubator for a further 24 or 48 h. Then the media was replaced with fresh media containing no drug and the cells were left in the incubator. MTT assay was performed after 96 h elapsed from the time when cells were exposed to drugs or vehicle.
The cells were then left in the incubator and MTT assay was performed 96 h following the initial exposure to the drugs.
The selective index (SI) is the ratio of mean IC50 values for non‐cancer cells to cancer cells. […] While the isobologram can be considered predominantly as a graphical depiction of drug interactions, the combination index (CI) is a quantitative representation. It relates the actual drug concentration in the combination to the concentration of the single drug that achieves the same effect. […] Here, CI analysis was used to investigate combinations at 50% cytotoxicity. To this end the IC50 of the viability dose–response curves were determined by non‐linear regression curve fit analysis (GraphPad Prism, v5.00).
CIA+B is the combination index of A and B; C A the concentration of A applied in combination; C B the concentration of B applied in combination; IC50 A the IC50 of drug A when it was applied individually to the cells; IC50 B = IC50 of drug B when it was applied individually to the cells.

[2] = test system: A2780 cells; assay: Mitochondrial membrane potential assay (JC-1), A2780 cells; type: cell-based, human; conditions: A2780, 10-50 μM, 24 h, dose-dependent
Description: The mitochondrial membrane potential assay was performed to detect the loss in mitochondrial potential (de‐polarization), which is a vital step in apoptosis.[36] Cells were seeded in T25 flasks at 4 × 10^5 cells per flask and were incubated for 48 h or until they reached confluency. After the incubation time elapsed, drugs at concentrations of 10, 30, and 50 μM or vehicle were added to the flasks and further incubated for 24 h. After 24 h elapsed, the cells were harvested and suspended in PBS. Cell viability and number were determined by the cell viability assay using via1 cassettes on NC‐3000 system. The samples were diluted in PBS to 1 × 10^6 cells/mL and 2.5 μg/mL of JC‐1 dye was added to each sample. JC‐1 is a […] dye, which stains as fluorescent red as it aggregates in the mitochondrial matrix. In the absence of mitochondrial membrane potential, JC‐1 localizes in the cytosol in its fluorescent green form. Following the addition of JC‐1, the cells were incubated for 10–30 min at 37°C. […] 12.5 μL of samples were loaded on to an A‐8 slide and were analyzed using the NC‐3000 image cytometry. The degree of apoptosis (in proportional to the loss in mitochondrial membrane potential) was measured using a scatter plot of JC‐1 red fluorescence versus JC‐1 green fluorescence.

[3] = test system: caspase 3/7 activity in A2780/CP70 cells; assay: Caspase 3/7 assay, A2780/CP70 cells; type: cell-based, human; conditions: A2780/CP70, 24 h contact time, dose-dependent, significant above 10 μM
Description: (§1) Sensolyte homogenous caspase 3/7 assay kit was used to determine the caspase activity in ovarian cancer cells when treated with CBG. Cells were seeded in 96‐well plate at 6 × 10^3 cells per well and were incubated for 24 h. CBG was added in concentrations of 10, 20, 30, and 50 μM and incubated for a further 24 h. After the incubation time elapsed, the media was removed and replaced with 150 μL/well of fresh complete media. Caspase 3/7 solution was prepared by diluting the caspase substrate 1:100 with DTT‐containing assay buffer. 50 μL/well caspase substrate was added to the plates, and the cells were incubated for 30 min. Ac‐DEVD‐AMC serves as the fluorogenic indicator for assaying caspase‐3/7 activity. Ac‐DEVD‐AMC generates the AMC fluorophore in the presence of caspase 3/7, which produces bright blue fluorescence. The fluorescence was measured by the FLOUstar OPTIMA plate reader with the excitation at 354 nm and emission at 442 nm.
(§2) The level of caspase 3/7 was also determined using Apotox‐Glo Triple assay. Cells were seeded and drugs were added as described above in Section 2.6.1. After 24 h incubation, caspase 3/7 reagent was prepared by mixing caspase buffer and substrate and 100 μL of reagent was added to each well for 30 min incubation at room temperature. […] The luminescence was measured by the FLOUstar OPTIMA plate reader.

[4] = MTT cytotoxicity assay, non-cancer PNT2 cells; conditions: human, PNT2 normal prostate epithelial cells
Description: (§4) Human ovarian carcinoma cells, A2780 (sensitive to chemotherapeutics), A2780/CP70 (resistant to chemotherapeutics), and non‐cancerous cells including PNT2 (normal prostate epithelial cell line), and/or ARPE19 (human retinal pigment cell line) were maintained according to the ATCC and ECACC guidelines.
(§5) In vitro chemosensitivity assays were performed using the MTT assay as previously described.[32], [33] Briefly, at 70% confluency, cells were seeded in 96‐well plates at a density of 2000 cells/well. […] After the allocated contact time had elapsed, the media was removed and 0.5% (w/v) MTT solution diluted in complete media (200 μL) was added to each well. Following a 4 h incubation, the supernatants were removed, and the formazan crystals were dissolved in dimethylsulfoxide (150 μL). The absorbance was read at 540 nm on a Tecan Infinite 50 plate UV reader.

[5] = MTT cytotoxicity assay, non-cancer ARPE19 cells; conditions: human, ARPE19 non-cancer retinal pigment cells
Description: as §4, §5

[6] = test system: A2780 cells; assay: Cell cycle analysis (DAPI, NC-3000), A2780 cells; type: cell-based, human; conditions: 48 h
Description: (§3) Cells were seeded in T25 flasks at 4 × 10^5 cells per flask and were incubated for 48 h or until they reached confluency. […] After the incubation time elapsed cells were suspended in PBS with a density closer to 1 × 10^6cells/mL. The cells were washed twice with 1× PBS before the addition of 250 μL of lysis buffer (solution 10) supplemented with 10 μg/mL DAPI (solution 12) was added to the samples and incubated for 5 min at 37°C. After incubation, 250 μL of stabilization buffer (solution 11) was added. 12.5 μL of samples were loaded on to an A‐8 slide and were analyzed using the NC‐3000 system.

[7] = test system: A2780/CP70 cells; assay: Cell cycle analysis (DAPI, NC-3000), A2780/CP70 cells; type: cell-based, human; conditions: 48 h
Description: as §3

[8] = test system: caspase 3/7 activity in A2780 cells; assay: Caspase 3/7 assay, A2780 cells; type: cell-based, human; conditions: A2780, 24 h contact time, dose-dependent, significant above 10 μM
Description: as §1, §2

Q: What does the source list for CCCCCc1cc(O)c(C/C=C(\C)CCC=C(C)C)c(O)c1 [CBG, cannabigerol]?
A: IC50 ([1]; A2780/CP70, 24 h): 17.7 ± 0.1 µM; IC50 ([1]; A2780/CP70, 48 h): 15.4 ± 0.7 µM; IC50 ([1]; A2780/CP70, 72 h): 12.3 ± 1.4 µM; IC50 ([1]; A2780/CP70, 96 h): 7.1 ± 0.8 µM; Selectivity index ([1]; IC50 ARPE19 / IC50 A2780/CP70, 24 h): 1.81; Selectivity index ([1]; IC50 ARPE19 / IC50 A2780/CP70, 48 h): 1.37; Selectivity index ([1]; IC50 ARPE19 / IC50 A2780/CP70, 72 h): 1.56; Selectivity index ([1]; IC50 ARPE19 / IC50 A2780/CP70, 96 h): 2.45; Selectivity index ([1]; IC50 PNT2 / IC50 A2780/CP70, 48 h): 1.48; Selectivity index ([1]; IC50 PNT2 / IC50 A2780/CP70, 72 h): 1.59; Selectivity index ([1]; IC50 PNT2 / IC50 A2780/CP70, 96 h): 2.56; Percentage of apoptotic cells (loss of mitochondrial membrane potential) [2]: induced an increase in the percentage of apoptotic cells; Caspase 3/7 activity [3]: increased the caspase 3/7 activity; IC50 at 24 h [4]: 37.2 ± 2.1 µM; IC50 at 48 h [4]: 22.9 ± 1.5 µM; IC50 at 72 h [4]: 19.9 ± 0.3 µM; IC50 at 96 h [4]: 18.3 ± 1.3 µM; IC50 at 24 h [5]: 32.1 ± 1.8 µM; IC50 at 48 h [5]: 21.2 ± 2.7 µM; IC50 at 72 h [5]: 19.2 ± 1 µM; IC50 at 96 h [5]: 17.4 ± 2.4 µM; Cells in G0/G1 phase ([6]; A2780, 10 μM): 79.1 ± 0.4%; Cells in G0/G1 phase ([6]; A2780, 30 μM): 80.2 ± 1.3%; Cells in G0/G1 phase ([6]; A2780, 50 μM): 67.6 ± 1.1%; Cells in subG1 phase ([6]; A2780, 50 μM): 8.7 ± 0.6%; Cells in G0/G1 phase ([7]; A2780/CP70, 10 μM): 86.4 ± 0.5%; Cells in G0/G1 phase ([7]; A2780/CP70, 30 μM): 90.6 ± 0.4%; Cells in S phase ([7]; A2780/CP70, 30 μM): 5.6 ± 0.6%; Cells in G2/M phase ([7]; A2780/CP70, 50 μM): 16.4 ± 1.9%; Caspase 3/7 activity [8]: increased the caspase 3/7 activity
